Data: ChEMBL document CHEMBL1201862, “PubChem BioAssay data set” (2004)
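Briefly, cells in 96-well plates were exposed to five compound concentrations for 48 h, and endpoints were estimated by linear interpolation. GI50 is the concentration that inhibits growth by half.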 Calls of active or inactive are those of the source. Cut-off read from the data, not from the text of the source: active = GI50 up to about 1.1 µM and inactive = higher.

What was measured:
Assay in all cases: inhibition of tumour cell growth, NCI panel, 48 h
NCI-H226 = system: NCI-H226
MCF7 = system: MCF7
NCI-H522 = system: NCI-H522
NCI-H23 = system: NCI-H23
CAKI-1 = system: CAKI-1
SR = system: SR
HCT-116 = system: HCT-116
RXF 393 = system: RXF 393
PC-3 = system: PC-3
NCI/ADR-RES = system: NCI/ADR-RES
UACC-62 = system: UACC-62
SW-620 = system: SW-620
RPMI-8226 = system: RPMI-8226
HOP-62 = system: HOP-62
SNB-19 = system: SNB-19
UO-31 = system: UO-31
DU-145 = system: DU-145
KM12 = system: KM12
OVCAR-4 = system: OVCAR-4
UACC-257 = system: UACC-257

Measured: GI50

C[N+](C)(C)CC(=O)N/N=C/c1ccncc1
inactive: NCI-H226 > 100 µM | MCF7 > 100 µM | NCI-H522 > 100 µM | NCI-H23 > 100 µM | CAKI-1 > 100 µM | SR > 100 µM | HCT-116 > 100 µM | RXF 393 > 100 µM | PC-3 > 100 µM | NCI/ADR-RES > 100 µM | UACC-62 > 100 µM | SW-620 > 100 µM | RPMI-8226 > 100 µM | HOP-62 > 100 µM | SNB-19 > 100 µM | UO-31 > 100 µM | DU-145 > 100 µM | KM12 > 100 µM | OVCAR-4 > 100 µM | UACC-257 > 100 µM

COC12C=CC(CC1)C(C)(C)C2OS(C)(=O)=O (centres undefined)
inactive: NCI-H226 > 100 µM | MCF7 > 100 µM | NCI-H522 > 100 µM | NCI-H23 > 100 µM | CAKI-1 > 100 µM | SR > 100 µM | HCT-116 > 100 µM | RXF 393 > 100 µM | PC-3 > 100 µM | NCI/ADR-RES > 100 µM | UACC-62 > 100 µM | SW-620 > 100 µM | RPMI-8226 > 100 µM | HOP-62 > 100 µM | SNB-19 > 100 µM | UO-31 > 100 µM | DU-145 > 100 µM | KM12 > 100 µM | OVCAR-4 > 100 µM | UACC-257 > 100 µM

CC(C)OC(=O)C(NC(=O)C(CC(=O)OCc1ccccc1)NC(=O)OCc1ccccc1)NC(=O)C1C(C)(C)CCC1(C)C (centres undefined)
inactive: NCI-H226 7.21 µM | MCF7 14.9 µM | NCI-H522 11.6 µM | NCI-H23 10.2 µM | CAKI-1 9.98 µM | SR 2.64 µM | HCT-116 3.61 µM | RXF 393 4.43 µM | PC-3 2.8 µM | NCI/ADR-RES 4.98 µM | UACC-62 20.7 µM | SW-620 3.23 µM | RPMI-8226 7.5 µM | HOP-62 6.56 µM | SNB-19 4.29 µM | UO-31 4.84 µM | DU-145 22.9 µM | KM12 9.02 µM | OVCAR-4 3.55 µM | UACC-257 30.3 µM

CC1CC(C#N)=C2NCCCCN2C1=O (centres undefined)
inactive: NCI-H226 > 100 µM | MCF7 > 100 µM | NCI-H522 > 100 µM | NCI-H23 > 100 µM | CAKI-1 > 100 µM | SR > 100 µM | RXF 393 > 100 µM | PC-3 > 100 µM | NCI/ADR-RES > 100 µM | UACC-62 > 100 µM | SW-620 > 100 µM | RPMI-8226 > 100 µM | HOP-62 > 100 µM | SNB-19 > 100 µM | UO-31 > 100 µM | DU-145 > 100 µM | KM12 > 100 µM | OVCAR-4 > 100 µM | UACC-257 > 100 µM

CN(c1ccccc1Cl)S(=O)(=O)c1ccc([N+](=O)[O-])cc1
inactive: NCI-H226 > 100 µM | MCF7 > 100 µM | NCI-H522 > 100 µM | NCI-H23 > 100 µM | CAKI-1 > 100 µM | SR > 100 µM | HCT-116 > 100 µM | RXF 393 > 100 µM | PC-3 > 100 µM | NCI/ADR-RES > 100 µM | UACC-62 > 100 µM | SW-620 > 100 µM | RPMI-8226 > 100 µM | HOP-62 > 100 µM | SNB-19 > 100 µM | UO-31 > 100 µM | DU-145 > 100 µM | KM12 > 100 µM | OVCAR-4 > 100 µM | UACC-257 > 100 µM
